PubChem BioAssay AID1023 (Columbia University Molecular Screening Center, 2008)

System: HUVEC TNFalpha-induced p65 nuclear translocation, imaging
Experiment: inhibitors of TNFa-induced NFkB p65 translocation, SAR follow-up, imaging, HUVEC (AID 1023)

SMILES | IC50
Cc1ccc2c(c1)-c1ccc3cccnc3c1NS2(=O)=O | 562 nM
Cc1ccc2cccc(NS(=O)(=O)c3ccc(Cl)s3)c2n1 | 986 nM
COc1ccc2c(c1)-c1ccc3cccnc3c1NS2(=O)=O | 992 nM
Cc1ccc2cccc(NS(=O)(=O)c3cccc([N+](=O)[O-])c3)c2n1 | 912 nM
COc1ccc(S(=O)(=O)Nc2cccc3ccc(C)nc23)c([N+](=O)[O-])c1 | 1020 nM
COc1cc2ccc(C)nc2c2c1-c1cc(C)ccc1S(=O)(=O)N2 | 886 nM
